Experiments:
Adenosine A2 receptor = Adenosine A2 receptor (Rattus norvegicus, UniProt P29276+P30543)
Description: Inhibition of [3H]NECA binding to adenosine A2 receptor from rat striatal membranes

Rattus norvegicus [1] = assay: Dose producing 10% decrease in heart rate of anaesthetized spontaneous hypertensive male rat(SHR); type: functional
Adenosine receptor A1 = biological target: T1, Adenosine receptor A1 (Rattus norvegicus, UniProt P25099); assay: Inhibition of [3H]CHA binding to adenosine A1 receptor from rat brain membranes; type: cell membranes, Membrane
T1 sequence (P25099 whole entry): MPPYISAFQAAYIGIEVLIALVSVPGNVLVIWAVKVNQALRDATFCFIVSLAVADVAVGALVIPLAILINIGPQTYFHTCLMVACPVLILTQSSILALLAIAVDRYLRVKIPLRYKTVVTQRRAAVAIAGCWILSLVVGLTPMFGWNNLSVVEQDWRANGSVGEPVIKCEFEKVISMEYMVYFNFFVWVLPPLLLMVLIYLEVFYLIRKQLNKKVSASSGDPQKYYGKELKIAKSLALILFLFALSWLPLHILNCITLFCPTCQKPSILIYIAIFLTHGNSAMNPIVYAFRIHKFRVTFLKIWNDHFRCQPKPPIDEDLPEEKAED

Rattus norvegicus [2] = assay: Dose producing 30% decrease in blood pressure of anesthetized spontaneous hypertensive male rat(SHR); type: functional

| Ki (Adenosine A2 receptor) | Ki (Adenosine receptor A1) | Structure (SMILES) | ED10 (Rattus norvegicus [1]) | ED30 (Rattus norvegicus [2]) |
| --- | --- | --- | --- | --- |
| 1.9 nM | 3.4 nM | Nc1nc(C#CC(O)c2ccccc2)nc2c1ncn2[C@@H]1O[C@H](CO)[C@@H](O)[C@H]1O (stereo not given in full) | 1.3 µg/kg | 0.05 µg/kg |
| 7.9 nM | 133 nM | CCCCCCC#Cc1nc(N)c2ncn([C@@H]3O[C@H](CO)[C@@H](O)[C@H]3O)c2n1 | > 100 µg/kg | 0.2 µg/kg |
| 37 nM | 400 nM | Nc1nc(C#CCCc2ccccc2)nc2c1ncn2[C@@H]1O[C@H](CO)[C@@H](O)[C@H]1O | > 100 µg/kg | 1.21 µg/kg |
| 20 nM | 8.3 nM | Nc1nc(C#CCO)nc2c1ncn2[C@@H]1O[C@H](CO)[C@@H](O)[C@H]1O | 0.74 µg/kg | 0.36 µg/kg |
| 12 nM | 88 nM | Nc1nc(C#CC2CCCC2)nc2c1ncn2[C@@H]1O[C@H](CO)[C@@H](O)[C@H]1O | > 100 µg/kg | 0.29 µg/kg |
| 19 nM | 32 nM | CC(C)(O)C#Cc1nc(N)c2ncn([C@@H]3O[C@H](CO)[C@@H](O)[C@H]3O)c2n1 | 1.4 µg/kg | 0.14 µg/kg |
| 18 nM | 15 nM | CC(O)C#Cc1nc(N)c2ncn([C@@H]3O[C@H](CO)[C@@H](O)[C@H]3O)c2n1 (stereo not given in full) | 0.8 µg/kg | 0.15 µg/kg |
| 109 nM | 701 nM | Nc1nc(C#Cc2ccccc2)nc2c1ncn2[C@@H]1O[C@H](CO)[C@@H](O)[C@H]1O | > 100 µg/kg | 10.1 µg/kg |
| 1.8 nM | 16 nM | CCCC(O)C#Cc1nc(N)c2ncn(C3O[C@H](CO)[C@@H](O)[C@H]3O)c2n1 (stereo not given in full) | 0.83 µg/kg | 0.04 µg/kg |
| 3.3 nM | 11 nM | Nc1nc(C#CC2(O)CCCC2)nc2c1ncn2C1O[C@H](CO)[C@@H](O)[C@H]1O (stereo not given in full) | 1.6 µg/kg | 0.07 µg/kg |

The remaining lines, values behind:

| Structure (SMILES) | Ki (Adenosine A2 receptor) | Ki (Adenosine receptor A1) | ED10 (Rattus norvegicus [1]) | ED30 (Rattus norvegicus [2]) |
| --- | --- | --- | --- | --- |
| COc1cc(OC)cc(C(CNc2ncnc3c2ncn3[C@@H]2O[C@H](CO)[C@@H](O)[C@H]2O)c2ccccc2C)c1 (stereo not given in full) | 6.9 nM | 108 nM | > 100 µg/kg |  |
| Nc1nc(C#CC2(O)CCCCC2)nc2c1ncn2[C@@H]1O[C@H](CO)[C@@H](O)[C@H]1O |  |  | 3.5 µg/kg | 0.02 µg/kg |
| Nc1nc(C#CC2(O)CCCCCCC2)nc2c1ncn2[C@@H]1O[C@H](CO)[C@@H](O)[C@H]1O |  |  | 13 µg/kg | 0.01 µg/kg |
| Nc1nc(C#CCC2CCCC2)nc2c1ncn2[C@@H]1O[C@H](CO)[C@@H](O)[C@H]1O | 2.3 nM |  | > 100 µg/kg | 0.05 µg/kg |
| Nc1nc(C#CC2(O)CCCCCC2)nc2c1ncn2[C@@H]1O[C@H](CO)[C@@H](O)[C@H]1O | 1.1 nM | 27 nM | 5.6 µg/kg | 0.02 µg/kg |
| CCCCC#Cc1nc(N)c2ncn([C@@H]3O[C@H](CO)[C@@H](O)[C@H]3O)c2n1 |  |  | 67 µg/kg | 0.11 µg/kg |
| Nc1nc(C#CCCC2CCCCC2)nc2c1ncn2C1O[C@H](CO)[C@@H](O)[C@H]1O (stereo not given in full) | 26 nM | 313 nM | > 100 µg/kg | 0.48 µg/kg |
| CCCCCC(O)C#Cc1nc(N)c2ncn(C3O[C@H](CO)[C@@H](O)[C@H]3O)c2n1 (stereo not given in full) | 2 nM | 11 nM | 0.45 µg/kg | 0.06 µg/kg |
| Nc1nc(C#CC2CCCCC2)nc2c1ncn2C1O[C@H](CO)[C@@H](O)[C@H]1O (stereo not given in full) | 10 nM | 138 nM | > 100 µg/kg | 0.36 µg/kg |
| Nc1nc(C#CCCC2CCCC2)nc2c1ncn2C1O[C@H](CO)[C@@H](O)[C@H]1O (stereo not given in full) | 3.4 nM | 136 nM | > 100 µg/kg | 0.16 µg/kg |
| Nc1nc(C#CCC2CCCCC2)nc2c1ncn2C1O[C@H](CO)[C@@H](O)[C@H]1O (stereo not given in full) |  |  | > 100 µg/kg | 0.15 µg/kg |
| Nc1nc(C#CCCCC2CCCCC2)nc2c1ncn2C1O[C@H](CO)[C@@H](O)[C@H]1O (stereo not given in full) | 46 nM | > 229 nM | > 100 µg/kg | 1.64 µg/kg |
| CCNC(=O)[C@H]1O[C@@H](n2cnc3c(N)nc(NCCc4ccc(CCC(=O)O)cc4)nc32)[C@H](O)[C@@H]1O [CGS-21680] |  |  | > 100 µg/kg | 0.97 µg/kg |
